Results: patent US20240018158A1, “BRM TARGETING COMPOUNDS AND ASSOCIATED METHODS OF USE” (Prelude Therapeutics Incorporated, priority 2020, published 2024)

Target: SMARCA2 (Homo sapiens (Human), UniProt P51531)
Assay: SMARCA2 HiBiT degradation assay in HEK293T cells
Assay type: cell-based
Conditions: 293T HiBiT assay, 24 h; for DC50: read-out: DC50 (SM2-293T) SMARCA2 degradation potency; for Dmax: HEK-293T, read-out: Dmax % (SM2-293T) maximum SMARCA2 degradation within the concentrations tested
Procedure: HiBiT peptide knock-in of SMARCA2 in LgBiT expressing HEK293T cells was performed by CRISPR-mediated tagging system as described Promega. The homozygous HiBiT knock-in on c-terminus SMARCA2 was confirmed by sanger sequence. SMARCA2-HiBiT knock-in Hela monoclonal cell (CS302366) and SMARCA4-HiBiT knock-in Hela monoclonal cell (CS3023226) were purchased from Promega. The heterozygous HiBiT-knock-in was confirmed by sanger sequence in both SMARCA2-HiBiT and SMARCA4-HiBiT monoclonal cells. Compounds were prepared in a low dead volume plate at 3-fold serial dilution, and then transferred 25 nL/well into a 384 well plate (Corning: #356661) by Agilent Bravo liquid dispenser. SMARCA2-HiBiT monoclonal HEK293T cells were added at 5,000/well/25 uL into the compound containing 384 well plate. After 24 h incubation, 25 uL/well of Nano-Glo HiBiT Lytic detection buffer (Promega: N3050) was added to the wells and incubate for 10 min on a shaker, centrifuged for 5 min, and then RLU was detected on a microplate reader (Envision, PerkinElmer). The RLU ratio values are normalized to percent inhibition as follows: % inhibition=((HC−LC)−(compound−LC))/(HC−LC))*100, where HC=high control=mean signal of DMSO only; LC=low control=mean signal of 100% inhibition of RLU by 1 μM PRT1001728. An 11-point dose response curve for each compound will be generated using normalized % inhibition to determine IC50 values based on the equation: Y=Bottom+((Top-Bottom)/(1+((IC50/X)^Slope))), where Y is the % inhibition in the presence of X inhibitor concentration; Top=the top plateau of the curve; Bottom=the bottom plateau of the curve; Slope=Hill coefficient; DC50=concentration of compound with 50% degradation in relation to top/high control. DC50 values were determined by using XLfit Model 205.

SMARCA2, sequence (P51531 whole entry): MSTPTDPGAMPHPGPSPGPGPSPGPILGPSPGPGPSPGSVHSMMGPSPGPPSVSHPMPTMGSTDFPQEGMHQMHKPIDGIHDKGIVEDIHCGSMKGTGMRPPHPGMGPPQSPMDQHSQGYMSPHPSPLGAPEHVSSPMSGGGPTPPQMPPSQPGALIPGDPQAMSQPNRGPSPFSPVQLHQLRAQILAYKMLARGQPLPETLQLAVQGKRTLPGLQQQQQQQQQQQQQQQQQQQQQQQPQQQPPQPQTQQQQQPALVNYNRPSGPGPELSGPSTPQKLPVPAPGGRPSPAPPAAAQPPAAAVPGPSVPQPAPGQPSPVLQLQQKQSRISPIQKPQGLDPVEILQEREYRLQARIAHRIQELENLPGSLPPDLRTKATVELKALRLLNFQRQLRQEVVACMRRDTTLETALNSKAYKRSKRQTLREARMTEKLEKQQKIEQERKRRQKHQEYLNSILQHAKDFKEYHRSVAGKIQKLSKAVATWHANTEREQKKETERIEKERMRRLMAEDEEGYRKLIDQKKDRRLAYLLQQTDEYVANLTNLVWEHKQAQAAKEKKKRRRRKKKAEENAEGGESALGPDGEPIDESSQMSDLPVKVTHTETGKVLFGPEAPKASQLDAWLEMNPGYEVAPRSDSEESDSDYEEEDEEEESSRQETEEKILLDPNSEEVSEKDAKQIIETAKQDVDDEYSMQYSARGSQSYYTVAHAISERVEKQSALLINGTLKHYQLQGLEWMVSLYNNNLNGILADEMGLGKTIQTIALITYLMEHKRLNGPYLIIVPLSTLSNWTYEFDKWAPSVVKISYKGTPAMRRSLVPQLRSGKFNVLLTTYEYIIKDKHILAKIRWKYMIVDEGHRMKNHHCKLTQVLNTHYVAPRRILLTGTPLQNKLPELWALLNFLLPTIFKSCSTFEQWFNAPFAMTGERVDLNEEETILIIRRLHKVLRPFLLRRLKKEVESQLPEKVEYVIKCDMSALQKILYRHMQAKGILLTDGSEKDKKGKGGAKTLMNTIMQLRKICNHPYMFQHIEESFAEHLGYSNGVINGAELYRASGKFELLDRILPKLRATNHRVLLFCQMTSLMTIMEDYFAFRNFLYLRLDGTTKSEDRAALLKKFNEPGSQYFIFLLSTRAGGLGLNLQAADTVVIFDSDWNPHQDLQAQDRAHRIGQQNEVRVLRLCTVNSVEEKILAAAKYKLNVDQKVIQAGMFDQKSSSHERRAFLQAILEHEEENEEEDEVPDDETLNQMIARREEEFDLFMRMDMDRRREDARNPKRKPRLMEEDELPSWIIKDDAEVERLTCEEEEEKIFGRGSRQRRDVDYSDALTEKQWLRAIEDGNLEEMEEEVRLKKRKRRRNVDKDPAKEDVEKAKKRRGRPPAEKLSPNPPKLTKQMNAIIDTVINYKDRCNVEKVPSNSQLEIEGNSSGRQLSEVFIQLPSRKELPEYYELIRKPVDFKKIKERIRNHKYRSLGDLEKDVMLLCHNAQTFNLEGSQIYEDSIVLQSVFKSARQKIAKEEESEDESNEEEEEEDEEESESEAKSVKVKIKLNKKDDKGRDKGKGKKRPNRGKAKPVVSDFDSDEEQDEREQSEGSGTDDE

Compound | DC50 | Dmax
Cc1ncsc1-c1ccc([C@H](C)NC(=O)[C@@H]2C[C@@H](O)CN2C(=O)[C@@H](c2cc(OCCN3CC4CC(C3)C4N3CCN4c5cc(-c6ccccc6O)nnc5NCC4C3)no2)C(C)C)cc1 (stereo partly drawn) [Example 12, (2S,4R)-4-hydroxy-1-((2R)-2-(3-(2-(6-(2-(2-hydroxyphenyl)-5,6,6a,7,9,10-hexahydro-8H-pyrazino[1′,2′:4,5]pyrazino[2,3-c]pyridazin-8-yl)-3-azabicyclo[3.1.1]heptan-3-yl)ethoxy)isoxazol-5-yl)-3-methylbutanoyl)-N-((S)-1-(4-(4-methylthiazol-5-yl)phenyl)ethyl)pyrrolidine-2-carboxamide] | 100 to 1000 nM | > 75%
Cc1nccn1-c1ccc([C@H](C)NC(=O)[C@@H]2C[C@@H](O)CN2C(=O)[C@@H](c2cc(OCCN3CCC(CN4CCN5c6cc(-c7ccccc7O)nnc6NC[C@H]5C4)CC3)no2)C(C)C)cc1 [Example 37, (2S,4R)-4-hydroxy-1-((R)-2-(3-(2-(4-(((S)-2-(2-hydroxyphenyl)-5,6,6a,7,9,10-hexahydro-8H-pyrazino[1′,2′:4,5]pyrazino[2,3-c]pyridazin-8-yl)methyl)piperidin-1-yl)ethoxy)isoxazol-5-yl)-3-methylbutanoyl)-N-((S)-1-(4-(2-methyl-1H-imidazol-1-yl)phenyl)ethyl)pyrrolidine-2-carboxamide] | < 100 nM | > 75%
Cc1ncsc1-c1ccc([C@H](C)NC(=O)[C@@H]2C[C@@H](O)CN2C(=O)[C@@H](c2cc(OCCN3CCC(CN4CCN5c6cc(-c7ccccc7O)nnc6NC[C@H]5C4)CC3)no2)C(C)C)c(F)c1 [Example 36, (2S,4R)-N-((S)-1-(2-fluoro-4-(4-methylthiazol-5-yl)phenyl)ethyl)-4-hydroxy-1-((R)-2-(3-(2-(4-(((S)-2-(2-hydroxyphenyl)-5,6,6a,7,9,10-hexahydro-8H-pyrazino[1′,2′:4,5]pyrazino[2,3-c]pyridazin-8-yl)methyl)piperidin-1-yl)ethoxy)isoxazol-5-yl)-3-methylbutanoyl)pyrrolidine-2-carboxamide] | < 100 nM | > 75%
Cc1ncsc1-c1ccc([C@H](C)NC(=O)[C@@H]2C[C@@H](O)CN2C(=O)[C@@H](c2cc(OCCN3C4CCC3CC(CN3CCN5c6cc(-c7ccccc7O)nnc6NCC5C3)C4)no2)C(C)C)cc1 (stereo partly drawn) [Example 78, (2S,4R)-4-hydroxy-1-((2R)-2-(3-(2-(3-((2-(2-hydroxyphenyl)-5,6,6a,7,9,10-hexahydro-8H-pyrazino[1′,2′:4,5]pyrazino[2,3-c]pyridazin-8-yl)methyl)-8-azabicyclo[3.2.1]octan-8-yl)ethoxy)isoxazol-5-yl)-3-methylbutanoyl)-N-((S)-1-(4-(4-methylthiazol-5-yl)phenyl)ethyl)pyrrolidine-2-carboxamide] | < 100 nM | > 75%
CC(C)[C@@H](C(=O)N1C[C@H](O)C[C@H]1C(=O)N[C@@H](C)c1ccc(C#N)cc1)c1cc(OCCN2CCC(CN3CCN4c5cc(-c6ccccc6O)nnc5NC[C@H]4C3)CC2)no1 [Example 35, (2S,4R)—N-((S)-1-(4-cyanophenyl)ethyl)-4-hydroxy-1-((R)-2-(3-(2-(4-(((S)-2-(2-hydroxyphenyl)-5,6,6a,7,9,10-hexahydro-8H-pyrazino[1′,2′:4,5]pyrazino[2,3-c]pyridazin-8-yl)methyl)piperidin-1-yl)ethoxy)isoxazol-5-yl)-3-methylbutanoyl)pyrrolidine-2-carboxamide] | < 100 nM | > 75%
Cc1ncsc1-c1ccc([C@H](C)NC(=O)[C@@H]2C[C@@H](O)CN2C(=O)[C@@H](c2cc(CN3CCC(N4CCN5c6cc(-c7ccccc7O)nnc6NC[C@H]5C4)CC3)no2)C(C)C)cc1 [Example 39, (2S,4R)-4-hydroxy-1-((R)-2-(3-((4-((S)-2-(2-hydroxyphenyl)-5,6,6a,7,9,10-hexahydro-8H-pyrazino[1′,2′:4,5]pyrazino[2,3-c]pyridazin-8-yl)piperidin-1-yl)methyl)isoxazol-5-yl)-3-methylbutanoyl)-N-((S)-1-(4-(4-methylthiazol-5-yl)phenyl)ethyl)pyrrolidine-2-carboxamide] | < 100 nM | > 75%
Cc1ncsc1-c1ccc([C@H](C)NC(=O)[C@@H]2C[C@@H](O)CN2C(=O)[C@@H](NC(=O)CN2CC(N3CCN4c5cc(-c6ccccc6O)nnc5NCC4C3)C2)C(C)(C)C)cc1 (stereo partly drawn) [Example 66, (2S,4R)-4-hydroxy-1-((2S)-2-(2-(3-(2-(2-hydroxyphenyl)-5,6,6a,7,9,10-hexahydro-8H-pyrazino[1′,2′:4,5]pyrazino[2,3-c]pyridazin-8-yl)azetidin-1-yl)acetamido)-3,3-dimethylbutanoyl)-N-((S)-1-(4-(4-methylthiazol-5-yl)phenyl)ethyl)pyrrolidine-2-carboxamide] | 100 to 1000 nM | > 75%

Now from value to compound:

DC50 | Dmax | Compound
< 100 nM | > 75% | Cc1ncsc1-c1ccc([C@H](C)NC(=O)[C@@H]2C[C@@H](O)CN2C(=O)[C@@H](c2cc(CCCN3CCCC(CN4CCN5c6cc(-c7ccccc7O)nnc6NC[C@H]5C4)C3)no2)C(C)C)cc1 (single isomer, unassigned) [Example 88]
< 100 nM | > 75% | Cc1ncsc1-c1ccc([C@H](C)NC(=O)[C@@H]2C[C@@H](O)CN2C(=O)[C@@H](c2cc(OCCN3CCCC(CN4CCN5c6cc(-c7ccccc7O)nnc6NC[C@H]5C4)C3)no2)C(C)C)cc1 (single isomer, unassigned) [Example 85]
< 100 nM | > 75% | Cc1ncsc1-c1ccc([C@H](C)NC(=O)[C@@H]2C[C@@H](O)CN2C(=O)[C@@H](c2cc(OCCN3CCC(CN4CCN5c6cc(-c7ccccc7O)nnc6NC[C@H]5C4)C(C)(C)C3)no2)C(C)C)cc1 (stereo partly drawn) [Example 87, (2S,4R)-4-hydroxy-1-((2R)-2-(3-(2-(4-(((S)-2-(2-hydroxyphenyl)-5,6,6a,7,9,10-hexahydro-8H-pyrazino[1′,2′:4,5]pyrazino[2,3-c]pyridazin-8-yl)methyl)-3,3-dimethylpiperidin-1-yl)ethoxy)isoxazol-5-yl)-3-methylbutanoyl)-N-((S)-1-(4-(4-methylthiazol-5-yl)phenyl)ethyl)pyrrolidine-2-carboxamide]
< 100 nM | > 75% | Cc1ncsc1-c1ccc([C@H](C)NC(=O)[C@@H]2C[C@@H](O)CN2C(=O)[C@@H](c2cc(OC3CCN(CCCN4CCN5c6cc(-c7ccccc7O)nnc6NC[C@H]5C4)C3)no2)C(C)C)cc1 (stereo partly drawn) [Example 83, (2S,4R)-4-hydroxy-1-((2R)-2-(3-((1-(3-((S)-2-(2-hydroxyphenyl)-5,6,6a,7,9,10-hexahydro-8H-pyrazino[1′,2′:4,5]pyrazino[2,3-c]pyridazin-8-yl)propyl)pyrrolidin-3-yl)oxy)isoxazol-5-yl)-3-methylbutanoyl)N-((S)-1-(4-(4-methylthiazol-5-yl)phenyl)ethyl)pyrrolidine-2-carboxamide]
< 100 nM | > 75% | Cc1ncsc1-c1ccc([C@H](C)NC(=O)[C@@H]2C[C@@H](O)CN2C(=O)[C@@H](NC(=O)CN2CCC(N3CCN4c5cc(-c6ccccc6O)nnc5NC[C@@H]4C3)CC2)C(C)(C)C)cc1 [Example 79, (2S,4R)-4-hydroxy-1-((S)-2-(2-(4-((R)-2-(2-hydroxyphenyl)-5,6,6a,7,9,10-hexahydro-8H-pyrazino[1′,2′:4,5]pyrazino[2,3-c]pyridazin-8-yl)piperidin-1-yl)acetamido)-3,3-dimethylbutanoyl)-N-((S)-1-(4-(4-methylthiazol-5-yl)phenyl)ethyl)pyrrolidine-2-carboxamide]
< 100 nM | > 75% | Cc1ncsc1-c1ccc([C@H](C)NC(=O)[C@@H]2C[C@@H](O)CN2C(=O)[C@@H](c2cc(OC(C)CN3CCCC(CN4CCN5c6cc(-c7ccccc7O)nnc6NC[C@H]5C4)CC3)no2)C(C)C)cc1 (stereo partly drawn) [Example 67, (2S,4R)-4-hydroxy-1-((2R)-2-(3-((1-(4-(((S)-2-(2-hydroxyphenyl)-5,6,6a,7,9,10-hexahydro-8H-pyrazino[1′,2′:4,5]pyrazino[2,3-c]pyridazin-8-yl)methyl)azepan-1-yl)propan-2-yl)oxy)isoxazol-5-yl)-3-methylbutanoyl)-N-((S)-1-(4-(4-methylthiazol-5-yl)phenyl)ethyl)pyrrolidine-2-carboxamide]
100 to 1000 nM | > 75% | Cc1ncsc1-c1ccc([C@H](C)NC(=O)[C@@H]2C[C@@H](O)CN2C(=O)C(c2cc(COc3cc(N4CCN5c6cc(-c7ccccc7O)nnc6NCC5C4)ccn3)no2)C(C)C)cc1 (stereo partly drawn) [Example 75, (2S,4R)-4-hydroxy-1-(2-(3-(((4-(2-(2-hydroxyphenyl)-5,6,6a,7,9,10-hexahydro-8H-pyrazino[1′,2′:4,5]pyrazino[2,3-c]pyridazin-8-yl)pyridin-2-yl)oxy)methyl)isoxazol-5-yl)-3-methylbutanoyl)N-((S)-1-(4-(4-methylthiazol-5-yl)phenyl)ethyl)pyrrolidine-2-carboxamide]
